Experiment: ABTS initial absorbance (A436) reduction rate (Test Example 3)
Format: physicochemical
Details: in one minute at 25° C.; 1 mM (single compound) or 0.011 g nitrogen element in 100 mL (composition); pH 8.5
Excerpt: In the present specification, the absorbance of a solution containing ABTS (ABTS solution), at a wavelength of 436 nm, is defined as an ABTS initial absorbance (A436). In the present specification, the ABTS initial absorbance (A436) reduction rate (%) of the activity improving agent is defined to be a reduction rate (%) of the absorbance of a mixed solution, which contains the above ABTS solution and the above activity improving agent, at a wavelength of 436 nm in one minute, with respect to the ABTS initial absorbance (A436) (100%). Note that the ABTS solution is a solution in which the concentration of ABTS is adjusted such that the absorbance (A436) at a wavelength of 436 nm is approximately 1.3 at an optical path length of 1.0 cm. The value “approximately 1.3” here is intended to mean a value in a range in which 1.3 is obtained by rounding the value to the first decimal place. Test Examples described later will explain specific methods for measuring the absorbance (A436) of the ABTS solution at a wavelength of 436 nm and the ABTS initial absorbance (A436) reduction rate (%) of the activity improving agent. ABTS is an abbreviation for 2,2′-azinobis(3-ethylbenzothiazoline-6-sulfonic acid).
In the present activity improving method, when the ABTS initial absorbance (A436) reduction rate (%) of the activity improving agent is measured, the concentration of the activity improving agent in the ABTS solution for measurement is set as follows: (a) the concentration is set to 1 mM, when the molecular weight of the activity improving agent is evident as in a case where the activity improving agent is made of a single compound; and (b) when the activity improving agent is a substance which is made of a composition having an inevident molecular weight, the content of nitrogen element is used as a reference and the concentration is set such that the content of nitrogen element derived from the activity improving agent is 0.011 g in 100 mL of the ABTS solution for measurement. Note that, in the above (b), the content of nitrogen element derived from the activity improving agent in the ABTS solution is a value calculated by the Kjeldahl method.
The following describes a specific evaluation method. ABTS employed was an ABTS manufactured by Roche Diagnostics K.K. Further, the ABTS was dissolved in a 50 mM glycine-KOH (pH 8.5) buffer so that the concentration of the ABTS became 2.0 mg/mL. An ABTS solution was thus prepared. The absorbance of the ABTS solution at a wavelength of 436 nm (ABTS initial absorbance (A436)) was measured at an optical path length of 1.0 cm, by using a molecular absorption spectrometer Spectra Max Plus 384 (manufactured by Molecular Devices Japan K.K.). As a result the absorbance was approximately 1.3. Next, 5 μL of an activity improving agent solution or a comparative substance solution was added to 195 μL of the ABTS solution, so that a reaction solution for evaluating ABTS (hereinafter, also referred to as “reaction solution A”) was prepared. […]

| Compound | A436 reduction rate (%) |
| --- | --- |
| O=C1O[C@H]([C@@H](O)CO)C(O)=C1O [L-ascorbic acid] | 87.81 |
| O=c1[nH]c(=O)c2[nH]c(=O)[nH]c2[nH]1 [Uric acid, uric acid] | 71.49 |

From patent US20220017877A1, “BILIRUBIN OXIDASE ACTIVITY IMPROVING METHOD, AND BILIRUBIN OXIDASE PRODUCT” (OZEKI CORPORATION, priority 2018, published 2022)
